Measured values taken from ChEMBL document CHEMBL3046359, “QSAR and pharmacophore studies of telomerase inhibitors” (Med Chem Res, 2012).

These compounds were tested against Telomerase reverse transcriptase (Homo sapiens) (UniProt O14746) (assay: Inhibition of telomerase in Homo sapiens (human) A549 cells after 24 hr by TRAP assay).
Telomerase reverse transcriptase (Homo sapiens), sequence (O14746 whole entry): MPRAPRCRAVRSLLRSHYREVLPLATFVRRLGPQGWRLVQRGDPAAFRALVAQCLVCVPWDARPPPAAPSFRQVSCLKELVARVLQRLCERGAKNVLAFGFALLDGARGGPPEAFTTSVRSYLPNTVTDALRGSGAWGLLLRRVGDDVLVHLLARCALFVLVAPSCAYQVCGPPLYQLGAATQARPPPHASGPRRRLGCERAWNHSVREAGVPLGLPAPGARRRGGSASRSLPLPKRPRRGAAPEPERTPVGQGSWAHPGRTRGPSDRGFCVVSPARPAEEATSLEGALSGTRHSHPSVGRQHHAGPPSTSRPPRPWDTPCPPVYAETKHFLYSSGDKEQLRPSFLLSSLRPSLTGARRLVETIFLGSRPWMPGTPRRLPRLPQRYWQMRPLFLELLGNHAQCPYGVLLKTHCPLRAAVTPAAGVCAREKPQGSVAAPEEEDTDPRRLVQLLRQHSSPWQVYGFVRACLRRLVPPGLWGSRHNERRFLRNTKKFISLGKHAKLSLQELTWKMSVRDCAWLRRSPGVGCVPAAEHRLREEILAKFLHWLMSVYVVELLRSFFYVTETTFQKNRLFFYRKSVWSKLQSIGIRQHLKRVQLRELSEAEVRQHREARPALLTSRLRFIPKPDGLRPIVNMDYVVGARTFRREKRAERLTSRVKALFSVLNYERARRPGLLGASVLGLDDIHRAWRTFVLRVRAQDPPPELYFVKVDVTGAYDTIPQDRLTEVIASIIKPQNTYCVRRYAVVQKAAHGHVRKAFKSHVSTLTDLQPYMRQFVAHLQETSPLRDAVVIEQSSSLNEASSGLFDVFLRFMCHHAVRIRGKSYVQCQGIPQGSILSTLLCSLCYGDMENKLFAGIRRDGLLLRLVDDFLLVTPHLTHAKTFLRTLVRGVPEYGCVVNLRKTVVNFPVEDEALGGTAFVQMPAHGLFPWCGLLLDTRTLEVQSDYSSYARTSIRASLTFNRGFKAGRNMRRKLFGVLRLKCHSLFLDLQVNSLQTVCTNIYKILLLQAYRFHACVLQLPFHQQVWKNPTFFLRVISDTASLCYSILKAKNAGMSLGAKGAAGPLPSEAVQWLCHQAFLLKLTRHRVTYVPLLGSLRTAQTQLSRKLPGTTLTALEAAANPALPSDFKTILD
Type: cell-based
With `O=C(CCN1CCCCC1)Nc1ccc2cc3ccc(NC(=O)CCN4CCCCC4)cc3nc2c1` the logIC50 was 0.45. Compound `O=C(CCN1CCCCCC1)Nc1ccc2c(c1)C(=O)c1ccc(NC(=O)CCN3CCCCCC3)cc1C2=O` has a logIC50 of 1.11. For `O=C(CCN1CCCCC1)Nc1ccc2c(c1)C(=O)c1ccc(NC(=O)CCN3CCCCC3)cc1C2=O`, the logIC50 was 0.65. `O=C(CCN1CCCCCC1)Nc1ccc2cc3ccc(NC(=O)CCN4CCCCCC4)cc3nc2c1` showed a logIC50 of 0.49. For `O=C(CCN1CCCC1)Nc1ccc2c(c1)C(=O)c1ccc(NC(=O)CCN3CCCC3)cc1C2=O`, the logIC50 was 0.25. For `O=C(CCN1CCCC1)Nc1ccc2cc3ccc(NC(=O)CCN4CCCC4)cc3nc2c1`, the logIC50 was 0.72.

The compounds below were run against Telomerase reverse transcriptase (Homo sapiens) (UniProt O14746) (assay: Inhibition of telomerase (unknown origin)).
Work on `COc1ccc2ccc3c([nH]c4c5ccccc5nc(NCCN(C)C)c34)c2c1` yielded a logIC50 of 0.1. In the case of `C[n+]1cccc2cc(Nc3nc(N)nc(Nc4ccc5c(ccc[n+]5C)c4)n3)ccc21`, the logIC50 is reported as -0.89. Compound `CN(C)CCCNCc1cc2nc3ccccc3cc2c2cc3ccccc3nc12` has a logIC50 of -0.12. Compound `CCN(CC)CCC(=O)Nc1ccc2c(c1)C(=O)c1cc(NC(=O)CCN(CC)CC)ccc1-2` has a logIC50 of 1.19. Work on `CCN1CCN(CCC(=O)Nc2ccc3c(c2)C(=O)c2cc(NC(=O)CCN4CCN(CC)CC4)ccc2-3)CC1` yielded a logIC50 of 1.23. `C[N+]1(CCC(=O)Nc2ccc3c(c2)C(=O)c2cc(NC(=O)CC[N+]4(C)CCCCC4CO)ccc2-3)CCCCC1CO` (stereo unspecified) showed a logIC50 of 1.52. With `CN(C)CCCNCc1ccc2nc3c(ccc4cc5cc(CNCCCN(C)C)ccc5nc43)cc2c1` the logIC50 was -0.04. Work on `CCCNCc1cc2nc3ccccc3cc2c2cc3ccccc3nc12` yielded a logIC50 of 0.16. `O=C(CCN1CCCCC1CO)Nc1ccc2c(c1)C(=O)c1cc(NC(=O)CCN3CCCCC3CO)ccc1-2` (stereo unspecified) gave a logIC50 of 0.9. Compound `CCN(CC)CCOc1ccc2c(c1)OC1C(=O)c3ccccc3C(=O)C21` (stereo unspecified) has a logIC50 of 0.84. `CCCNCc1ccc2nc3c(ccc4cc5cc(CNCCC)ccc5nc43)cc2c1` showed a logIC50 of -0.3. `CCCNCc1ccc2nc3ccc4nc5ccc(CNCCC)cc5cc4c3cc2c1` was tested, and the logIC50 was 0. In the case of `CC1CCCCN1CCC(=O)Nc1ccc2c(c1)C(=O)c1cc(NC(=O)CCN3CCCCC3C)ccc1-2` (stereo unspecified), the logIC50 is reported as 1.08. Work on `c1ccc2nc3cc(CNCCN4CCCCC4)c4nc5ccccc5cc4c3cc2c1` yielded a logIC50 of 0.3. For `CN(C)CCC(=O)Nc1ccc2c(c1)C(=O)c1cc(NC(=O)CCN(C)C)ccc1-2`, the logIC50 was 1.21. With `C[N+]1(CCC(=O)Nc2ccc3c(c2)C(=O)c2cc(NC(=O)CC[N+]4(C)CCOCC4)ccc2-3)CCOCC1` the logIC50 was 1.44. In the case of `CC[N+](C)(CC)CCC(=O)Nc1ccc2c(c1)C(=O)c1cc(NC(=O)CC[N+](C)(CC)CC)ccc1-2`, the logIC50 is reported as 1.4. For `C[N+](C)(C)c1ccc(Nc2nc(N)nc(Nc3ccc([N+](C)(C)C)cc3)n2)cc1`, the logIC50 was 0.84. Compound `CN(C)CCCNc1nc2ccccc2c2[nH]c3c4cc([N+](=O)[O-])ccc4ccc3c12` has a logIC50 of -0.3. `C[N+](C)(C)CCC(=O)Nc1ccc2c(c1)C(=O)c1cc(NC(=O)CC[N+](C)(C)C)ccc1-2` showed a logIC50 of 1.27. For `CCC1CCCCN1CCC(=O)Nc1ccc2c(c1)C(=O)c1cc(NC(=O)CCN3CCCCC3CC)ccc1-2` (stereo unspecified), the logIC50 was 1.15. `CCCNCc1ccc2nc3ccc4cc5cc(CNCCC)ccc5nc4c3cc2c1` was tested, and the logIC50 was -0.52. Work on `CSc1nc(Nc2ccc3nc(C)cc(N(C)C)c3c2)nc(Nc2ccc3nc(C)cc(N(C)C)c3c2)n1` yielded a logIC50 of -1.39. `Cc1oc2nc1-c1nc(co1)-c1nc(co1)-c1nc(co1)-c1nc(co1)-c1nc(co1)C1=NC(CS1)c1nc-2c(C)o1` (stereo unspecified) was tested, and the logIC50 was -2.3. For `CN(C)CCc1ccc2nc3c4ccccc4n(CCN(C)C)c3cc2c1`, the logIC50 was 1.2. `O=C(CCN1CCC(O)CC1)Nc1ccc2c(c1)C(=O)c1cc(NC(=O)CCN3CCC(O)CC3)ccc1-2` gave a logIC50 of 1.27. Compound `O=C(CCN1CCCCC1)Nc1ccc2c(c1)C(=O)c1cc(NC(=O)CCN3CCCCC3)ccc1-2` has a logIC50 of 0.95. In the case of `C[N+]1(CCC(=O)Nc2ccc3c(c2)C(=O)c2cc(NC(=O)CC[N+]4(C)CCCCC4)ccc2-3)CCCCC1`, the logIC50 is reported as 1.32. `O=C(CCN1CCCCC1CCO)Nc1ccc2c(c1)C(=O)c1cc(NC(=O)CCN3CCCCC3CCO)ccc1-2` (stereo unspecified) was tested, and the logIC50 was 1.22. With `CN1CCN(CCC(=O)Nc2ccc3c(c2)C(=O)c2cc(NC(=O)CCN4CCN(C)CC4)ccc2-3)CC1` the logIC50 was 1.64. For `CN(C)CCCNCc1ccc2nc3ccc4cc5cc(CNCCCN(C)C)ccc5nc4c3cc2c1`, the logIC50 was -1.55. With `COc1ccc2c(ccc3c2[nH]c2c4ccccc4nc(NCCCN(C)C)c32)c1` the logIC50 was 0.

The compounds below were run against Telomerase reverse transcriptase (Homo sapiens) (UniProt O14746) (assay: Inhibition of Homo sapiens (human) telomerase).
For `O=C(O)CCCCCCCCCCCNC(=O)Cc1cn(CCCn2ccc3ccccc32)c2ccccc12`, the logIC50 was 1.96. Work on `Cc1cn(CCCn2cc(CC(=O)NCCCCCCCCCCCC(=O)O)c3ccccc32)c2ccccc12` yielded a logIC50 of 1.3. For `O=C(O)CCCCCCCCCCCNC(=O)Cc1cn(CCOc2cccc3ccccc23)c2ccccc12`, the logIC50 was 1.54. Work on `O=C(O)CCCCCCCCCCCNC(=O)Cc1cn(CCn2ccc3ccccc32)c2ccccc12` yielded a logIC50 of 1.61. `O=C(O)CCCCCCCCCCCNC(=O)Cc1cn(CCCOC2CCCCC2)c2ccccc12` showed a logIC50 of 1.83. `O=C(O)CCCCCCCCCCCNC(=O)Cc1cn(CCCOc2ccccc2)c2ccccc12` gave a logIC50 of 1.51. Compound `Cc1c2n(c3ccccc13)CCCn1c-2c(CC(=O)NCCCCCCCCCCCC(=O)O)c2ccccc21` has a logIC50 of 1.91.

What follows are compounds tested against Telomerase reverse transcriptase (Homo sapiens) (UniProt O14746) (assay: Inhibition of telomerase in Homo sapiens (human) A549 cells by TRAP assay).
Type: cell-based
`O=C(O)CCCCCCCCCCCNC(=O)Cc1c2n(c3ccccc13)CCn1c-2cc2ccccc21` was tested, and the logIC50 was 1.79.
